Measured values as given in ChEMBL document CHEMBL1201862, “PubChem BioAssay data set” (2004).
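Briefly, cells in 96-well plates were exposed to five compound concentrations for 48 h, and endpoints were estimated by linear interpolation. GI50: concentration for 50% inhibition of growth.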 The source made the active and inactive calls. Rule as the data show it: active = GI50 up to about 1.1 µM and inactive = higher.

What was measured:
Test in all cases: NCI anticancer screen, dose series, 48 h
[1] = system: 786-0
[2] = system: A498
[3] = system: A549
[4] = system: ACHN
[5] = system: BT-549
[6] = system: CAKI-1
[7] = system: CCRF-CEM
[8] = system: COLO 205
[9] = system: DU-145
[10] = system: EKVX
[11] = system: HCC 2998
[12] = system: HCT-116
[13] = system: HCT-15
[14] = system: HL-60
[15] = system: HOP-62
[16] = system: HOP-92
[17] = system: HT-29
[18] = system: Hs-578T
[19] = system: IGROV-1
[20] = system: K562
[21] = system: KM12
[22] = system: LOX IMVI
[23] = system: MCF7
[24] = system: MDA-MB-231
[25] = system: MDA-MB-435
[26] = system: MDA-N
[27] = system: MOLT-4
[28] = system: Malme-3M
[29] = system: NCI-H226
[30] = system: NCI-H23
[31] = system: NCI-H460
[32] = system: NCI-H522
[33] = system: NCI/ADR-RES
[34] = system: OVCAR-3
[35] = system: OVCAR-4
[36] = system: OVCAR-5
[37] = system: OVCAR-8
[38] = system: RPMI-8226
[39] = system: RXF 393
[40] = system: SF-268
[41] = system: SF-295
[42] = system: SF-539
[43] = system: SK-MEL-28
[44] = system: SK-MEL-2
[45] = system: SK-MEL-5
[46] = system: SK-OV-3
[47] = system: SN12C
[48] = system: SNB-19
[49] = system: SW-620
[50] = system: T47D
[51] = system: TK-10
[52] = system: U-251
[53] = system: UACC-257
[54] = system: UACC-62
[55] = system: UO-31

Compound: CCc1n[nH]c(=O)n1/N=C/c1ccc(C)cc1
- GI50 [1]: > 100 µM (inactive)
- GI50 [2]: 79.6 µM (inactive)
- GI50 [3]: > 100 µM (inactive)
- GI50 [4]: > 100 µM (inactive)
- GI50 [5]: > 100 µM (inactive)
- GI50 [6]: > 100 µM (inactive)
- GI50 [7]: > 100 µM (inactive)
- GI50 [8]: > 100 µM (inactive)
- GI50 [9]: 65.2 µM (inactive)
- GI50 [10]: 3.41 µM (inactive)
- GI50 [11]: > 100 µM (inactive)
- GI50 [12]: 97.9 µM (inactive)
- GI50 [13]: > 100 µM
- GI50 [14]: 1.37 µM (inactive)
- GI50 [15]: 37.7 µM (inactive)
- GI50 [16]: > 100 µM (inactive)
- GI50 [17]: 54.3 µM (inactive)
- GI50 [18]: 3.84 µM (inactive)
- GI50 [19]: 91 µM (inactive)
- GI50 [20]: > 100 µM (inactive)
- GI50 [21]: 69.3 µM (inactive)
- GI50 [22]: 69.8 µM (inactive)
- GI50 [23]: > 100 µM (inactive)
- GI50 [24]: > 100 µM (inactive)
- GI50 [25]: > 100 µM (inactive)
- GI50 [26]: > 100 µM (inactive)
- GI50 [27]: 5.2 µM (inactive)
- GI50 [28]: > 100 µM (inactive)
- GI50 [29]: 70.8 µM (inactive)
- GI50 [30]: > 100 µM (inactive)
- GI50 [31]: > 100 µM (inactive)
- GI50 [32]: > 100 µM (inactive)
- GI50 [33]: > 100 µM (inactive)
- GI50 [34]: 69.5 µM (inactive)
- GI50 [35]: 58.5 µM (inactive)
- GI50 [36]: > 100 µM (inactive)
- GI50 [37]: > 100 µM (inactive)
- GI50 [38]: 72.1 µM (inactive)
- GI50 [39]: > 100 µM (inactive)
- GI50 [40]: 66.5 µM (inactive)
- GI50 [41]: > 100 µM (inactive)
- GI50 [42]: > 100 µM (inactive)
- GI50 [43]: > 100 µM (inactive)
- GI50 [44]: > 100 µM (inactive)
- GI50 [45]: > 100 µM (inactive)
- GI50 [46]: > 100 µM (inactive)
- GI50 [47]: > 100 µM (inactive)
- GI50 [48]: > 100 µM (inactive)
- GI50 [49]: > 100 µM (inactive)
- GI50 [50]: > 100 µM (inactive)
- GI50 [51]: 60.3 µM (inactive)
- GI50 [52]: > 100 µM (inactive)
- GI50 [53]: 97.7 µM (inactive)
- GI50 [54]: 60.7 µM (inactive)
- GI50 [55]: 64.9 µM (inactive)
